Measurements from patent publication US20160257749A1, “ANTI-TIM3 ANTIBODIES AND METHODS OF USE” (Hoffmann-La Roche, Inc., priority 2014, published 2016).

Assays:
RPMI-8226 cells [1] = experiment: Cytotoxic activity of sortase coupled Fab-PE24 constructs, CellTiter-Glo; assay type: cell-based, human
Procedure: (§1) Treatment ranges from 50 μg/ml to 8 μg/ml in triplicate. Cycloheximide was used as positive control.

Pfeiffer cells [2] = experiment: as above; assay type: cell-based, human
Procedure: as §1

primary CD34+ AML cells = experiment: Cytotoxic activity of Fab-PE24 constructs on primary AML cells from relapsed/refractory patients; assay type: cell-based, human; details: 3 days at 37° C.
Description: CD34+ cells from peripheral blood of relapsed/refractory patients were obtained from AllCells, LLC, Alameda, Calif.
Cycloheximide was used as positive control.

RPMI-8226 cells [3] = experiment: Cytotoxic activity, human IgG1 format with anti-human Fc Fab-PE24, CellTiter-Glo; assay type: cell-based; details: full length human IgG1 format + human Fcγ specific Fab-PE 24 (10 μg/ml), 5 days at 37° C.
Description: (§2) Rel. Inhibition [%]=(1−(Esample−Enegative control)/(Epositive control−Enegative control))*100

Pfeiffer cells [4] = experiment: as above; assay type: cell-based; details: full length human IgG1 format + human Fcγ specific Fab-PE 24 (10 μg/ml), 5 days at 37° C.
Description: as §2

recTIM-3 CHO cells = experiment: Cytotoxic activity, sandwich format with anti-mouse Fc Fab-PE24, CellTiter-Glo; assay type: cell-based; details: Cricetulus griseus, 72 h, full length mouse Fcγ versions + mouse Fcγ specific Fab-PE 24 (10 μg/ml), 3 days at 37° C.
Description: as §2

TF-1 = experiment: Cytotoxic activity of Fab-PE24 constructs, CellTiter-Glo; assay type: cell-based, human; details: 4 days at 37° C.
Procedure: as §1

MOLM-13 = experiment: as above; assay type: cell-based, human; details: 4 days at 37° C.
Procedure: as §1

RPMI-8226 = experiment: as above; assay type: cell-based, human; details: 4 days at 37° C.
Procedure: as §1

CMK = experiment: as above; assay type: cell-based, human; details: 4 days at 37° C.
Procedure: as §1

Karpas-299 = experiment: as above; assay type: cell-based, human; details: 4 days at 37° C.
Procedure: as §1

Pfeiffer cells [5] = experiment: Cytotoxic activity of Fab-PE24 construct vs total IgG-Amatoxin conjugate, CellTiter-Glo; assay type: cell-based, human
Procedure: as §1

RNA-polymerase II = RNA-polymerase II (Homo sapiens, UniProt P24928+P30876); details: read-out: KD of the complex between amanitin and RNA-polymerase II; cited from earlier work

| Compound | RPMI-8226 cells Max. killing (RPMI-8226 cells [1]) | Pfeiffer cells Max. killing (Pfeiffer cells [2]) | D1; AML CD34+ PB0136 cells Max. killing (primary CD34+ AML cells) | D2; AML CD34+ PB0142 cells Max. killing (primary CD34+ AML cells) | D3; AML CD34+ PB0135 cells Max. killing (primary CD34+ AML cells) | D4; AML CD34+ PB0193 cells Max. killing (primary CD34+ AML cells) | RPMI-8226 cells Max. killing (RPMI-8226 cells [3]) | Pfeiffer cells Max. killing (Pfeiffer cells [4]) | IC50 (recTIM-3 CHO cells) [nM] | TF-1 Max. killing (TF-1) [%] | MOLM-13 Max. killing (MOLM-13) [%] | RPMI-8226 Max. killing (RPMI-8226) [%] | CMK Max. killing (CMK) [%] | Karpas-299 Max. killing (Karpas-299) [%] | Pfeiffer cells Max. killing (Pfeiffer cells [5]) | Kd (RNA-polymerase II) [nM] |
| --- | --- | --- | --- | --- | --- | --- | --- | --- | --- | --- | --- | --- | --- | --- | --- | --- |
| C[C@@H]1C[C@@H]([C@H](O)CC2CC(=O)NC(=O)C2)C(=O)[C@@H](C)C1 [Cycloheximide, reference compound] | 100 [%] | 100 [%] | 100 [%] | 100 [%] | 100 [%] | 100 [%] | 100 [%] | 100 [%] | 135 | 100 | 100 | 100 | 100 | 100 | 100 [%] | – |
| amanitin | – | – | – | – | – | – | – | – | – | – | – | – | – | – | – | 3 |
